# Reference: ChEMBL document CHEMBL4020848, “Antibacterial Activity Affected by the Conformational Flexibility in Glycine-Lysine Based α-Helical Antimicrobial Peptides” (J Med Chem, 2018)
# Calls of active or inactive are those of the source. The rule behind the calls is not given here.
# Tests used:
# Escherichia coli [1] = test: Bactericidal activity against Escherichia coli ATCC 25922 after 18 hrs by microdilution method; assay type: functional; conditions: ATCC 25922, 18 h, read-out: MBC=>99.9
# [2] = Cytotoxicity against human peripheral blood leukocytes assessed as cell viability at 0.18 uM after 24 hrs by acridine orange/ethidium bromide staining based fluorescence microscopic method relative to control; set-up: species or system Leukocyte; conditions: read-out: Activity
# Escherichia coli [3] = test: Induction of membrane permeabilization in Escherichia coli ATCC 25922 assessed as loss of pili/flagella at MBC after 1 hr by atomic force microscopic method; assay type: functional
# Escherichia coli [4] = test: Induction of membrane permeabilization in Escherichia coli ATCC 25922 assessed as loss of pili/flagella at MIC after 1 hr by atomic force microscopic method; assay type: functional
smiles,measurement,setting,value
CC[C@H](C)[C@H](NC(=O)CN)C(=O)NCC(=O)N[C@@H](C)C(=O)N[C@H](C(=O)N[C@@H](CC(C)C)C(=O)N[C@@H](CCCCN)C(=O)N[C@H](C(=O)N[C@@H](CC(C)C)C(=O)N[C@H](C(=O)N[C@H](C(=O)NCC(=O)N[C@@H](CC(C)C)C(=O)N1CCC[C@H]1C(=O)N[C@@H](C)C(=O)N[C@@H](CC(C)C)C(=O)N[C@H](C(=O)N[C@@H](CO)C(=O)N[C@@H](Cc1c[nH]c2ccccc12)C(=O)N[C@H](C(=O)N[C@@H](CCCCN)C(=O)N[C@@H](CCCNC(=N)N)C(=O)N[C@@H](CCCCN)C(=O)N[C@@H](CCCNC(=N)N)C(=O)N[C@@H](CCC(N)=O)C(=O)N[C@@H](CCC(N)=O)C(N)=O)[C@@H](C)CC)[C@@H](C)CC)[C@@H](C)O)[C@@H](C)O)C(C)C)C(C)C [MELITTIN],MBC,Escherichia coli [1],20 µM
same,"viability at 24 h, 0.18 µM",[2],60%
same,Activity,Escherichia coli [3],Active
same,Activity,Escherichia coli [4],Active
